Results taken from US6737383B1, “Herbicidal oxadiazolidines” (priority 1999, dated 2004).

Key:
bedstraw = test: Test B pre/postemergence bedstraw; assay type: in vivo, Galium aparine
Outline: (§1)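 Response is a visual 0-to-10 score relative to untreated plants, where 0 means no effect and 10 means complete control, taken twelve to sixteen days after application. Treatments went onto soil at planting and onto foliage of 1- to 4-leaf plants, using a surfactant-containing non-phytotoxic solvent.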

morningglory = test: Test B pre/postemergence morningglory; assay type: in vivo, Ipomoea hederacea
Outline: as §1

soybean = test: Test B pre/postemergence soybean; assay type: in vivo, Glycine max
Outline: as §1

crabgrass = test: Test B pre/postemergence crabgrass; assay type: in vivo, Digitaria sanguinalis
Outline: as §1

surinam grass = test: Test B pre/postemergence surinam grass; assay type: in vivo, Brachiaria decumbens
Outline: as §1

cocklebur = test: Test B pre/postemergence cocklebur; assay type: in vivo, Xanthium strumarium
Outline: as §1

wild oat = test: Test B pre/postemergence wild oat; assay type: in vivo, Avena fatua
Outline: as §1

purple nutsedge = test: Test B pre/postemergence purple nutsedge; assay type: in vivo, Cyperus rotundus
Outline: as §1

velvetleaf = test: Test B pre/postemergence velvetleaf; assay type: in vivo, Abutilon theophrasti
Outline: as §1

corn = test: Test B pre/postemergence corn; assay type: in vivo, Zea mays
Outline: as §1

wheat = test: Test B pre/postemergence wheat; assay type: in vivo, Triticum aestivum
Outline: as §1

blackgrass = test: Test B pre/postemergence blackgrass; assay type: in vivo, Alopecurus myosuroides
Outline: as §1

giant foxtail = test: Test B pre/postemergence giant foxtail; assay type: in vivo, Setaria faberii
Outline: as §1

[1] = Postemergence, Rate 125 g/ha, scale of 0 to 10 where 0 is no effect and 10 is complete control
[2] = Preemergence, Rate 62 g/ha, scale of 0 to 10 where 0 is no effect and 10 is complete control
[3] = Preemergence, Rate 125 g/ha, 0 is no effect, 10 is complete control
[4] = Preemergence, Rate 250 g/ha, scale 0 to 10, 0 is no effect, 10 is complete control
[5] = Preemergence, Rate 500 g/ha, scale 0 to 10 (0 no effect, 10 complete control)
[6] = Rate 62 g/ha, Postemergence, scale of 0 to 10 where 0 is no effect and 10 is complete control
[7] = Rate 250 g/ha, Postemergence, scale 0 to 10, 0 is no effect, 10 is complete control
[8] = Rate 500 g/ha, Postemergence, scale 0 to 10

Structure (SMILES): CC(C)N(C(=O)n1oc(=O)n(CC(F)(F)F)c1=O)c1ccc(F)cc1 [Compound 163]
- Bedstraw plant response rating (bedstraw; [1]): 4
- Bedstraw plant response rating (bedstraw; [2]): 0
- Bedstraw plant response rating (0 to 10 scale) (bedstraw; [3]): 0
- Bedstraw plant response rating (bedstraw; [4]): 4
- Bedstraw plant response rating (bedstraw; [5]): 4
- Bedstraw plant response rating (bedstraw; [6]): 0
- Plant response rating, Bedstraw (bedstraw; [7]): 7
- Bedstraw plant response rating (bedstraw; [8]): 9
- Morningglory plant response rating (morningglory; [1]): 2
- Morningglory plant response rating (morningglory; [2]): 0
- Morningglory plant response rating (0 to 10 scale) (morningglory; [3]): 0
- Morningglory plant response rating (morningglory; [4]): 0
- Morningglory plant response rating (morningglory; [5]): 0
- Morningglory plant response rating (morningglory; [6]): 2
- Plant response rating, Morningglory (morningglory; [7]): 5
- Morningglory plant response rating (morningglory; [8]): 8
- Soybean plant response rating (soybean; [1]): 2
- Soybean plant response rating (soybean; [2]): 0
- Soybean plant response rating (0 to 10 scale) (soybean; [3]): 0
- Soybean plant response rating (soybean; [4]): 0
- Soybean plant response rating (soybean; [5]): 0
- Soybean plant response rating (soybean; [6]): 2
- Plant response rating, Soybean (soybean; [7]): 3
- Soybean plant response rating (soybean; [8]): 3
- Crabgrass plant response rating (crabgrass; [1]): 7
- Crabgrass plant response rating (crabgrass; [2]): 8
- Crabgrass plant response rating (crabgrass; [4]): 8
- Crabgrass plant response rating (crabgrass; [5]): 9
- Crabgrass plant response rating (crabgrass; [6]): 6
- Plant response rating, Crabgrass (crabgrass; [7]): 8
- Crabgrass plant response rating (crabgrass; [8]): 9
- B. signalgrass plant response rating (surinam grass; [1]): 2
- B. signalgrass plant response rating (surinam grass; [2]): 0
- B. signalgrass plant response rating (0 to 10 scale) (surinam grass; [3]): 2
- B. signalgrass plant response rating (surinam grass; [4]): 2
- B. signalgrass plant response rating (surinam grass; [5]): 2
- B. signalgrass plant response rating (surinam grass; [6]): 0
- Plant response rating, B. signalgrass (surinam grass; [7]): 5
- B. signalgrass plant response rating (surinam grass; Rate 500 g/ha, Postemergence, scale 0 to 10, 0 no effect, 10 complete control): 6
- Cocklebur plant response rating (cocklebur; [1]): 0
- Cocklebur plant response rating (cocklebur; [2]): 0
- Cocklebur plant response rating (0 to 10 scale) (cocklebur; [3]): 0
- Cocklebur plant response rating (cocklebur; [5]): 0
- Cocklebur plant response rating (cocklebur; [6]): 0
- Plant response rating, Cocklebur (cocklebur; [7]): 3
- Cocklebur plant response rating (cocklebur; [8]): 3
- Wild oats plant response rating (wild oat; [2]): 3
- Wild oats plant response rating (0 to 10 scale) (wild oat; [3]): 3
- Wild oats plant response rating (wild oat; [4]): 7
- Wild oats plant response rating (wild oat; [5]): 10
- Plant response rating, Wild oats (wild oat; [7]): 3
- Wild oats plant response rating (wild oat; [8]): 3
- Nutsedge plant response rating (purple nutsedge; [1]): 0
- Nutsedge plant response rating (purple nutsedge; [2]): 0
- Nutsedge plant response rating (0 to 10 scale) (purple nutsedge; [3]): 0
- Nutsedge plant response rating (purple nutsedge; [4]): 0
- Nutsedge plant response rating (purple nutsedge; [5]): 0
- Nutsedge plant response rating (purple nutsedge; [6]): 0
- Plant response rating, Nutsedge (purple nutsedge; [7]): 0
- Nutsedge plant response rating (purple nutsedge; [8]): 3
- Velvetleaf plant response rating (velvetleaf; [2]): 0
- Velvetleaf plant response rating (0 to 10 scale) (velvetleaf; [3]): 2
- Velvetleaf plant response rating (velvetleaf; [4]): 5
- Velvetleaf plant response rating (velvetleaf; [5]): 5
- Plant response rating, Velvetleaf (velvetleaf; [7]): 6
- Velvetleaf plant response rating (velvetleaf; [8]): 6
- Corn plant response rating (corn; [1]): 0
- Corn plant response rating (corn; [2]): 0
- Corn plant response rating (0 to 10 scale) (corn; [3]): 0
- Corn plant response rating (corn; [4]): 0
- Corn plant response rating (corn; [5]): 2
- Corn plant response rating (corn; [6]): 0
- Plant response rating, Corn (corn; [7]): 0
- Corn plant response rating (corn; [8]): 0
- Wheat plant response rating (wheat; [2]): 0
- Wheat plant response rating (0 to 10 scale) (wheat; [3]): 2
- Wheat plant response rating (wheat; [4]): 2
- Wheat plant response rating (wheat; [5]): 4
- Plant response rating, Wheat (wheat; [7]): 2
- Wheat plant response rating (wheat; [8]): 5
- Blackgrass plant response rating (blackgrass; [1]): 4
- Blackgrass plant response rating (blackgrass; [2]): 7
- Blackgrass plant response rating (0 to 10 scale) (blackgrass; [3]): 7
- Blackgrass plant response rating (blackgrass; [4]): 10
- Blackgrass plant response rating (blackgrass; [5]): 10
- Blackgrass plant response rating (blackgrass; [6]): 2
- Plant response rating, Blackgrass (blackgrass; [7]): 6
- Blackgrass plant response rating (blackgrass; [8]): 8
- Giant foxtail plant response rating (giant foxtail; [1]): 7
- Giant foxtail plant response rating (giant foxtail; [2]): 8
- Giant foxtail plant response rating (0 to 10 scale) (giant foxtail; [3]): 8
- Giant foxtail plant response rating (giant foxtail; [4]): 8
- Giant foxtail plant response rating (giant foxtail; [5]): 10
- Giant foxtail plant response rating (giant foxtail; [6]): 6
- Plant response rating, Giant foxtail (giant foxtail; [7]): 8
- Giant foxtail plant response rating (giant foxtail; [8]): 8
